# Test results taken from patent US20250186393A1 (SANOFI, priority 2022, published 2025).
# Key:
# [1] = tested on: estrogen receptor (ER)-positive, HER2-negative locally advanced or metastatic breast cancer; assay: AMEERA-3 open label randomized Phase 2 trial, efficacy (PFS, OS, ORR, CBR, DCR per RECIST 1.1 by ICR); assay type: in vivo, human
# [2] = AMEERA-3 safety: treatment-emergent adverse events, safety population; assay type: in vivo
# Text: Secondary endpoints are defined as follows: • Overall survival: the time interval from the date of randomization to the date of documented death (due to any cause); • Objective response rate: the proportion of participants who have a confirmed complete response (CR) or partial response (PR), as best overall response (BOR) derived from overall response determined by ICR as per RECIST 1.1, from the date of randomization to the date of end of treatment; • Disease control rate: the proportion of participants who have a confirmed CR, PR, stable disease (SD), or Non-CR/Non-PD as BOR determined by ICR as per RECIST 1.1 from the date of randomization to the date of end of treatment; • Clinical benefit rate: the proportion of participants who have a confirmed CR, PR, SD, or Non-CR/Non-PD for at least 24 weeks determined by ICR as per RECIST 1.1, from the date of randomization to the date of end of treatment; • Progression-free survival as per ESR1 status: determined at Cycle 1 Day 1; • Overall safety profile: evaluated by adverse events/serious adverse events and laboratory abnormalities.
# Concerning monitoring of adverse events, mention may be made of adverse events of special interest (AESI), who correspond to an adverse event (serious or nonserious) of scientific and medical concern specific to the Sponsor's product or program, for which ongoing monitoring and immediate notification by the Investigator to the Sponsor is required. Such events may require further investigation in order to characterize and understand them. For example: pregnancy of a participant or of a female partner of a participant entered in a study with IMP, symptomatic overdose with IMP, increase in ALT of a grade equal to or greater than 3, or photosensitivity.
# The analysis populations were defined as follows: • Enrolled population: all patients who signed the informed consent form. • Intent-to-treat (ITT) population: all patients from the enrolled population and for whom there was a confirmation of successful allocation of a randomization number by Interactive Response Technology (IRT). Patients were analyzed according to the treatment arm assigned at randomization. • Safety population: all patients randomly assigned to study intervention and who took at least one dose of study intervention. Patients were analyzed according to the treatment arm they actually received.
# The overview of adverse events (TEAEs: Treatment Emergent Adverse Events; SAEs: Serious Adverse Events; AESI: Adverse Events of Special Interest) is presented in Table 13.
# [3] = target: T1, UGT1A1 (Homo sapiens, UniProt P22309); conditions: cited from earlier work
# T1 sequence (P22309 26-533): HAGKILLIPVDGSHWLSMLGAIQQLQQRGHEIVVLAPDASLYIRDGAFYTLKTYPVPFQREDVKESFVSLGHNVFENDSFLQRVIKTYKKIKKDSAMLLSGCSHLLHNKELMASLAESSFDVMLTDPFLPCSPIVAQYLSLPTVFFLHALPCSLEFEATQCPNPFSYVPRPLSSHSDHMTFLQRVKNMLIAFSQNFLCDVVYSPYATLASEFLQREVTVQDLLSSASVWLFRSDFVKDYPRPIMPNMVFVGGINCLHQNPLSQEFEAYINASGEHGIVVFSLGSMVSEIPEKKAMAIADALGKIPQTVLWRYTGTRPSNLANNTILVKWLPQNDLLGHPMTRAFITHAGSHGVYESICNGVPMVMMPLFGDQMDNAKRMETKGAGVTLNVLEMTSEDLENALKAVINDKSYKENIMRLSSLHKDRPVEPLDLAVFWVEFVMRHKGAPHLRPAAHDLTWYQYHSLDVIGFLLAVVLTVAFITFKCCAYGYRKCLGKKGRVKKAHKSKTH
# [4] = target: T2, UGT1A4 (Homo sapiens, UniProt P22310); conditions: cited from earlier work
# T2 sequence (P22310 29-534): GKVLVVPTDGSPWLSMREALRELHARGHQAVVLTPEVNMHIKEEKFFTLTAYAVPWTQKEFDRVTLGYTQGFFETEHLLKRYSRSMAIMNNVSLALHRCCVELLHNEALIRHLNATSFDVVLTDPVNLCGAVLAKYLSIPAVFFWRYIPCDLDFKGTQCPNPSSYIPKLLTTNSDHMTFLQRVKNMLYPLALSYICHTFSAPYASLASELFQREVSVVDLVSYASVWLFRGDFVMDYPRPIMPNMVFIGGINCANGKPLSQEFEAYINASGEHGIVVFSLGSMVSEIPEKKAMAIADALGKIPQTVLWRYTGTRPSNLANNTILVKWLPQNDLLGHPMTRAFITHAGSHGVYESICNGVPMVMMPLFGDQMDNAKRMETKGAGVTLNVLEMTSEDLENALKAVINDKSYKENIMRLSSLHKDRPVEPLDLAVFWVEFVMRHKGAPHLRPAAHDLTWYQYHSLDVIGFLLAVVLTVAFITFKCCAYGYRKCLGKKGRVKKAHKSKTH
# [5] = amcenestrant 400 mg QD, Kaplan-Meier
structure (smiles),measurement,setting,value
"O=C(O)c1ccc2c(c1)CCCC(c1ccc(Cl)cc1Cl)=C2c1ccc(O[C@H]2CCN(CCCF)C2)cc1 [Amcenestrant, 6-(2,4-dichlorophenyl)-5-[4-[(3S)-1-(3-fluoropropyl)pyrrolidin-3-yl]oxyphenyl]-8,9-dihydro-7H-benzo[7]annulene-2-carboxylic acid]",Reduction in risk for disease progression or death,"[1]; ESR1 mutation at baseline, amcenestrant compared to PCEM",10.0%
same,Progression-free survival rate at 12 months,[1]; [5],20.4%
same,Progression-free survival rate at six months,[1]; [5],35.5%
same,Bradycardia/QTc prolongation,[2]; amcenestrant treatment arm,no bradycardia/QTc prolongation is observed
same,Gastrointestinal disorders,[2]; mostly of Grade 1 or 2,44.8%
same,Skin and subcutaneous tissue disorders,[2]; mostly of Grade 1 or 2,18.9%
same,"Participants with any AESI, %",[2]; safety population,(0.7) %
same,"Participants with any TEAE leading to treatment discontinuation, %",[2]; safety population,(3.5) %
same,"Participants with any TEAE, %",[2]; safety population,(82.5) %
same,"Participants with any grade ≥3 TEAE, %",[2]; safety population,(21.7) %
same,"Participants with any treatment emergent SAE, %",[2]; safety population,(16.1) %
same,"Participants with any treatment-related TEAE, %",[2]; safety population,(44.8) %
same,"Participants with any grade 5 TEAE, %","[2]; safety population, during the treatment period",(3.5) %
same,Substrate of UGT1A1,[3],substrate
same,Substrate of UGT1A4,[4],substrate
